Entries after “also recorded” stand apart in the source; their conditions may differ.
Tested on: opuAA-treA reporter activity
Experiment: opuAA-treA reporter fusion TreA enzyme activity assay
Assay type: cell-based, Bacillus subtilis
Conditions: strain STHB10 (OpuAR+), SMM with 1.2 M NaCl, 1 mM compatible solute
Description: opuAAB.infantis′-treA reporter gene fusions were constructed using primers opuAR treA Frag1/2 rev and either opuAR treA Frag1/4 for (Supplementary Table S2) to amplify a 1940-bp DNA fragment from chromosomal DNA of B. infantis NRRL B-14911, including the predicted opuA promoter region and the coding region of opuAR, or primer opuAR treA Frag2 for, to generate a fragment lacking the opuAR gene. PCR products, which had been cut with BamHI and SmaI, were cloned into the vector pJMB1 ([Hoffmann et al., 2013]). This vector carries a promoterless treA gene, whose gene product [phospho-α-(1,1)-glucosidase] can be assayed and photometrically quantitated with the chromogenic substrate α-PNPG ([Gotsche and Dahl, 1995]). The plasmids resulting for the construction of the treA transcriptional reporter gene fusions were named pSTH33 (opuAR^+/opuAAB.i-treA) and pSTH34 (opuAR^-/opuAAB.i-treA) (Supplementary Table S3). All treA reporter gene fusions were stably integrated as a single copy into the chromosome of various B. subtilis strains at the amyE gene; all of these strains carry a gene disruption mutation of the native chromosomal treA gene of B. subtilis to allow the assignment of the measured TreA enzyme activity to the reporter gene constructs (Supplementary Table S1).
Aliquots (1.5 ml) from cultures of B. subtilis strains carrying chromosomal opuAAB.i′-treA reporter operon gene fusions (Supplementary Table S1) were used to monitor the expression levels by assaying the TreA reporter enzyme activity as described previously using the chromogenic substrate α-PNPG ([Gotsche and Dahl, 1995]). The TreA-specific activity is expressed in units per milligram of protein. Protein concentrations were estimated from the optical density of the cell culture harboring the treA reporter operon gene fusion ([Miller, 1972]).
FIGURE 6 Influence of the B. subtilis GbsR-like regulators on the expression of opuA from B. infantis and its transcriptional response to the presence of compatible solutes. (A) Genetic structure of the opuAA-treA transcriptional reporter fusions. (B) The opuAA-treA reporter gene fusions, either including or lacking the B. infantis opuAR gene, were integrated into the chromosome of the B. subtilis strain STHB05; it carries gene disruption mutations of all three GbsR-like regulators, resulting in strains STHB10 (OpuAR^+) and STHB11 (OpuAR^-). […] The opuAA-treA reporter strains were grown in SMM to early exponential growth phase (OD578 1–1.5) and then assayed for TreA reporter enzyme activity. The shown data represent four independent biological replicates and each culture was assayed twice. (C) Strain STHB10 (opuAR^+/opuAA-treA) was grown in SMM with increasing NaCl concentrations until each of these cultures reached mid-exponential growth phase (OD578 of about 1.5) and were then harvested for TreA reporter enzyme activity assays. The given data are the means and standard deviations of four independent biological replicates and each culture was assayed twice. (D) Expression of the opuAA-treA reporter gene construct in response to extracellular provided compatible solutes. The opuAA-treA reporter fusion strains STHB10 (OpuAR^+) and STHB11 (OpuAR^-) were cultivated in SMM containing 1.2 M NaCl either in the absence or presence of 1 mM of the indicated compatible solutes. The opuAA-treA reporter fusion strains were grown to early exponential growth phase (OD578 1–1.5) and then assayed for TreA reporter enzyme activity. The given data are the means and standard deviations of four independent biological replicates and each culture was assayed twice.
To identify possible effector molecules for the B. infantis OpuAR protein, we conducted a series of in vivo experiments in which we assessed any possible inducing effects of compatible solutes on opuAA-treA transcriptional activity in an OpuAR-dependent fashion (Figure 6D).

SMILES	Induction of opuAA-treA reporter activity (OpuAR-dependent)
CN(C)CC(=O)O [DMG, dimethlyglycine]	did not serve as inducers
C[S+](C)CCC(=O)[O-] [DMSP, dimethylsulfoniopropionate]	did not serve as inducers
C[N+](C)(C)CCO [choline]	served as inducers; also recorded: induced
C[N+](C)(C)CC(=O)[O-] [glycine betaine]	served as inducers; also recorded: induced
C[N+](C)(C)CCC(=O)[O-] [homobetaine]	did not serve as inducers
C[N+]1(C)CCC[C@H]1C(=O)[O-] [proline betaine]	served as inducers; also recorded: induced

Source: publication PMC6207618, “The GbsR Family of Transcriptional Regulators: Functional Characterization of the OpuAR Repressor” (Frontiers in Microbiology, 2018)
